Data reported in patent US4113944A, “Cephalosporin-type antibiotics and process for producing the same” (Meiji Seika Kaisha, Ltd., priority 1974, dated 1978).
In brackets after ≈: the same amount, converted by molar mass. Where two headings read alike, the source gives them in different places.

Experiments:
[1] = acute toxicity in mice (LD50); conditions: mouse, in vivo
Escherichia coli = test: Minimum Inhibitory Concentration (antimicrobial activity), Escherichia coli; assay type: cell-based
[2] = tested on: Staphylococcus aureus Smith S-424; test: ED50 in mice suffering from infectious disease, Staphylococcus aureus Smith S-424; assay type: in vivo
Method: (§1) The ED50 values of the above obtained compounds were determined by intravenously administering the compounds to mice suffering from infectious diseases caused by various bacteria and were compared with those obtained using known antibiotics.

Salmonella = test: Minimum Inhibitory Concentration (antimicrobial activity), Salmonella; assay type: cell-based
Proteus vulgaris = test: Minimum Inhibitory Concentration (antimicrobial activity), Proteus vulgaris; assay type: cell-based; conditions: read-out: Minimum Inhibitory Concentration (MIC)
Proteus vulgaris C-73-9 = test: ED50 in mice suffering from infectious disease, Proteus vulgaris C-73-9; assay type: in vivo
Method: as §1

[3] = tested on: Salmonella typhi W-901-10; test: ED50 in mice suffering from infectious disease, Salmonella typhi W-901-10; assay type: in vivo; conditions: Salmonella enterica, iv
Method: as §1

[4] = tested on: Salmonella enteritidis No.11; test: ED50 in mice suffering from infectious disease, Salmonella enteritidis No.11; assay type: in vivo; conditions: Salmonella enterica
Method: as §1

Staphylococcus aureaus = test: Minimum Inhibitory Concentration (antimicrobial activity), Staphylococcus aureus; assay type: cell-based
Kurebusiera pneumonia = test: Minimum Inhibitory Concentration (antimicrobial activity), Kurebusiera pneumonia; assay type: cell-based
Pseudomonas aeruginose = test: Minimum Inhibitory Concentration (antimicrobial activity), Pseudomonas; assay type: cell-based
[5] = C739, Proteus vulgaris C-73-9 (strains produced from Cephalosporinase), intravenous, mice, Example 1 as disodium salt, read-out: ED50
[6] = Salmonella enteritidis No.11, intravenous, mice, Example 1 as disodium salt, read-out: ED50
[7] = acute toxicity, mice, Example 1 as disodium salt, read-out: LD50

O=C(Cc1cccs1)N[C@@H]1C(=O)N2C(C(=O)[O-])=C(C[n+]3ccccc3)CS[C@H]12 [Cephaloridine]
LD50 [1]: 3840 mg/kg

O=C(O)Cc1nnc(SCC2=C(C(=O)O)N3C(=O)C(NC(=O)Cc4cccs4)[C@H]3SC2)[nH]1 (some centres unmarked) [Example 1, 7-(2-thienylacetamido)-3-(5-carboxymethyl-1,3,4-triazol-2-yl)thiomethyl-3-cephem-4-carboxylic acid]
MIC (Escherichia coli): 6.25 µg/mL (≈ 12.6 µM)
ED50 ([2]; SMITHS424, Staphylococcus aureus Smith S-424, intravenous, mice, Example 1 as dipotassium salt, read-out: ED50): 8.5 mg/kg
MIC (Salmonella): 0.78 µg/mL (≈ 1.57 µM)
MIC (Proteus vulgaris): 3.13 µg/mL (≈ 6.32 µM)
ED50 (Proteus vulgaris C-73-9; [5]): 7.3 mg/kg
ED50 [3]: 52 mg/kg
ED50 [4, 6]: 27 mg/kg
LD50 [1, 7]: 6300 mg/kg

O=C(O)CCc1nnc(SCC2=C(C(=O)O)N3C(=O)C(NC(=O)Cc4cccs4)[C@H]3SC2)[nH]1 (some centres unmarked) [Example 2, 7-(2-thienylacetamido)-3-[5-(2-carboxyethyl)-1,3,4-triazol-2-yl]thiomethyl-3-cephem-4-carboxylic acid]
MIC (Escherichia coli): 6.25 µg/mL (≈ 12.3 µM)
MIC (Salmonella): 0.78 µg/mL (≈ 1.53 µM)
MIC (Proteus vulgaris): 0.2 µg/mL (≈ 0.392 µM)

Cn1c(CCC(=O)O)nnc1SCC1=C(C(=O)O)N2C(=O)C(NC(=O)Cc3cccs3)[C@H]2SC1 (some centres unmarked) [Example 3, 7-(2-thienylacetamido)-3-[5-(2-carboxyethyl)-1-methyl-1,3,4-triazol-2-yl]thiomethyl-3-cephem-4-carboxylic acid]
MIC (Escherichia coli): 1.56 µg/mL (≈ 2.98 µM)
MIC (Salmonella): 0.78 µg/mL (≈ 1.49 µM)
MIC (Proteus vulgaris): 0.78 µg/mL (≈ 1.49 µM)

O=C(O)CCc1nnc(SCC2=C(C(=O)O)N3C(=O)C(NC(=O)Cc4cccs4)[C@H]3SC2)n1-c1ccccc1 (some centres unmarked) [Example 4, 7-(2-thienylacetamido)-3-[5-(2-carboxyethyl)-1-phenyl-1,3,4-triazol-2-yl]thiomethyl-3-cephem-4-carboxylic acid]
MIC (Escherichia coli): 25 µg/mL (≈ 42.7 µM)
MIC (Salmonella): 25 µg/mL (≈ 42.7 µM)
MIC (Proteus vulgaris): 1.56 µg/mL (≈ 2.66 µM)

Cn1c(CC(=O)O)nnc1SCC1=C(C(=O)O)N2C(=O)C(NC(=O)Cc3cccs3)[C@H]2SC1 (some centres unmarked) [Example 5, 7-(2-thienylacetamido)-3-(5-carboxymethyl-1-methyl-1,3,4-triazol-2-yl)-thiomethyl-3-cephem-4-carboxylic acid]
MIC (Escherichia coli): 3.13 µg/mL (≈ 6.14 µM)
MIC (Salmonella): 0.78 µg/mL (≈ 1.53 µM)
MIC (Proteus vulgaris): 0.2 µg/mL (≈ 0.392 µM)

O=C(Cc1cccs1)NC1C(=O)N2C(C(=O)O)=C(CSc3nnc(C(=O)O)[nH]3)CS[C@H]12 (some centres unmarked) [Example 6, 7-(2-thienylacetamido)-3-(5-carboxy-1,3,4-triazol-2-yl)thiomethyl-3-cephem-4-carboxylic acid]
MIC (Escherichia coli): 6.25 µg/mL (≈ 13 µM)
MIC (Salmonella): 3.13 µg/mL (≈ 6.5 µM)
MIC (Proteus vulgaris): 0.2 µg/mL (≈ 0.415 µM)

Cn1c(SCC2=C(C(=O)O)N3C(=O)C(NC(=O)Cc4cccs4)C3SC2)nnc1C(=O)O (centres unmarked) [Example 7, 7-(2-thienylacetamido)-3-(5-carboxy-1-methyl-1,3,4-triazol-5-yl)-thiomethyl-3-cephem-4-carboxylic acid]
MIC (Escherichia coli): 1.56 µg/mL (≈ 3.15 µM)
MIC (Salmonella): 0.78 µg/mL (≈ 1.57 µM)
MIC (Proteus vulgaris): 0.39 µg/mL (≈ 0.787 µM)

O=C(Cc1cccs1)NC1C(=O)N2C(C(=O)O)=C(CSc3nnc(C(=O)O)n3-c3ccccc3)CSC12 (centres unmarked) [Example 8, 7-(2-thienylacetamido)-3-(5-carboxy-1-phenyl-1,3,4-triazol-5-yl)thiomethyl-3-cephem-4-carboxylic acid]
MIC (Escherichia coli): 25 µg/mL (≈ 44.8 µM)
MIC (Salmonella): 12.5 µg/mL (≈ 22.4 µM)
MIC (Proteus vulgaris): 0.78 µg/mL (≈ 1.4 µM)

Cn1cnnc1SCC1=C(C(=O)O)N2C(=O)C(NC(=O)Cc3cccs3)C2SC1 (centres unmarked) [Example 22, 7-(2-thienylacetamide)-3-(1-methyl-1,3,4-triazol-5-yl)thiomethyl-3-cephem-4-carboxylic acid]
MIC (Escherichia coli): 6.25 µg/mL (≈ 13.8 µM)
MIC (Staphylococcus aureaus): 0.78 µg/mL (≈ 1.73 µM)
MIC (Kurebusiera pneumonia): 0.78 µg/mL (≈ 1.73 µM)
MIC (Salmonella): 1.56 µg/mL (≈ 3.45 µM)
MIC (Pseudomonas aeruginose): 1.56 µg/mL (≈ 3.45 µM)
MIC (Proteus vulgaris): 50 µg/mL (≈ 111 µM)

CC(=O)OCC1=C(C(=O)O)N2C(=O)[C@@H](NC(=O)Cc3cccs3)[C@H]2SC1 [Sodium Cephalotin, 7-(2-thienylacetamido)cephalosporanic acid, reference compound]
MIC (Escherichia coli): 6.25 µg/mL
ED50 ([2]; Staphylococcus aureus, SMITHS424, iv): 19 mg/kg
MIC (Salmonella): 3.13 µg/mL
MIC (Proteus vulgaris): 2.5 µg/mL
ED50 (Proteus vulgaris C-73-9; Proteus vulgaris, C739, iv): 14 mg/kg
ED50 [3]: 200 mg/kg
ED50 ([4]; ENTERITIDIS, iv): 480 mg/kg
LD50 [1, 7]: 5180 mg/kg

Cc1nnc(SCC2=C(C(=O)O)N3C(=O)[C@@H](NC(=O)Cn4cnnn4)[C@H]3SC2)s1 [Sodium Cephazoline]
ED50 (Proteus vulgaris C-73-9; [5]): 18.5 mg/kg
ED50 [4, 6]: 130 mg/kg
LD50 [1, 7]: 3130 mg/kg
